From US20210392890A1, “COMPOSITIONS COMPRISING PYRIDINE CARBOXYLATE HERBICIDES AND PLANT GROWTH REGULATORS” (Corteva Agriscience LLC, priority 2018, published 2021)
Where “and” joins values, the source holds several entries; their conditions need not be identical. Equal entries are not always repeated. Where two headings read alike, the source gives them in different places.

Key:
Assay type in all cases: in vivo
[1] = test system: Papaver rhoeas (herbicide-resistant poppy); test: Greenhouse postemergence herbicidal effect on PAPRH-RES
Text: (§1) Seeds of the desired test plant species were planted in a 90:10% v/v (volume/volume) mixture of PRO-MIX® BX (Premier Tech Horticulture, Quakertown, Pa., USA) and PROFILE® GREENS GRADE™ (Profile Products LLC, Buffalo Grove, Ill., USA) planting mixture, which typically has a pH of 5.2 to 6.2 and an organic matter content of at least 50 percent, in plastic pots with a surface area of 103.2 square centimeters (cm^2). In some aspects, to help ensure good germination and healthy plants, a fungicide treatment and/or other chemical or physical treatment was applied. The plants were grown for 7-36 days (d) in a greenhouse with an approximate 14-hour (h) photoperiod which was maintained at about 23° C. during the day and 22° C. during the night. Nutrients and water were added on a regular basis and supplemental lighting was provided with overhead metal halide 1000-Watt lamps as necessary. The plants were employed for testing when they reached the second or third true leaf stage.
(§2) Emulsifiable concentrates of each of each pyridine carboxylate herbicide (Compound A or Compound B) were prepared at 100 grams acid equivalent per liter (g ae/L). The emulsifiable concentrates also included a safener, cloquintocet-mexyl, at 120 grams active ingredient per liter (g ai/L). […]
(§3) The treated plants and control plants were placed in a greenhouse as described above and watered by sub-irrigation to prevent wash-off of the test compounds. After 20-22 d, the condition of the test plants as compared with that of the control plants was determined visually and scored on a scale of 0 to 100 percent where 0 corresponds to no injury and 100 corresponds to complete kill.

[2] = test system: Amaranthus retroflexus (pigweed); test: Greenhouse postemergence herbicidal effect on AMARE; settings: for Herbicidal Effects (% visual injury) AMARE Obs: Ethephon 0 g/ha
Text: as §1
(§4) Emulsifiable concentrates of each of each pyridine carboxylate herbicide (Compound A or Compound B) were prepared at 100 grams acid equivalent per liter (g ae/L). The emulsifiable concentrates also included a safener, cloquintocet-mexyl, at 120 grams active ingredient per liter (g ai/L). An aliquot of each emulsifiable concentrate was placed in a 25 mL glass vial and diluted with an aqueous mixture of 1.25% (v/v) ACTIROB® B esterified rapeseed oil (Bayer Crop Science, Research Triangle Park, N.C., USA) or MSO® Concentrate with LECI-TECH® methylated soybean oil (Loveland Products, Loveland, Colo., USA) to obtain concentrated stock solutions at the highest application rate for each herbicide, based upon a 12 milliliter (mL) application volume at a rate of 187 liters per hectare (L/ha). The concentrated stock solutions were further diluted with an aqueous mixture of 1.25% v/v ACTIROB® B or MSO® Concentrate with LECI-TECH® to obtain stock solutions at reduced application rates for each herbicide. Spray solutions of the herbicide combinations (Compound A or Compound B plus the PGR) were prepared by adding weighed amounts or aliquots of the PGR to the stock solutions of Compound A or Compound B to form 12-mL spray solutions in two-way combinations.
(§5) The spray solutions were applied to the plant material with an overhead Mandel track sprayer equipped with 8002E nozzles calibrated to deliver 187 L/ha over an application area of 0.503 square meters (m^2) at a spray height of 18 inches (43 centimeters (cm)) above the average plant canopy. Control plants were sprayed in the same manner with the solvent blank. All pyridine carboxylate herbicide (component a) application rates are given as “g ae/ha” and all PGR (component b) application rates are given as “g ai/ha.”
as §3

[3] = test system: Abutilon theophrasti (velvetleaf); test: Greenhouse postemergence herbicidal effect on ABUTH; settings: for Herbicidal Effects (% visual injury) ABUTH Obs: Ethephon 0 g/ha
Text: as §1, §4, §5, §3

[4] = test system: Viola arvensis (field violet); test: Greenhouse postemergence herbicidal effect on VIOAR
Text: as §1, §2, §3

[5] = test system: Matricaria chamomilla (wild chamomile); test: Greenhouse postemergence herbicidal effect on MATCH
Text: as §1, §2, §3

[6] = test system: Setaria faberi (giant foxtail); test: Greenhouse postemergence herbicidal effect on SETFA; settings: for Herbicidal Effects (% visual injury) SETFA Obs: Ethephon 0 g/ha
Text: as §1, §4, §5, §3

[7] = test system: Digitaria sanguinalis (large crabgrass); test: Greenhouse postemergence herbicidal effect on DIGSA; settings: Ethephon 0 g/ha
Text: as §1, §2
as §3, with “kill. […]” for “kill.”

[8] = test system: Cyperus esculentus (yellow nutsedge); test: Greenhouse postemergence herbicidal effect on CYPES; settings: Ethephon 0 g/ha
Text: as §1, §2
as §3, with “kill. […]” for “kill.”

[9] = test system: Matricaria discoidea (pineapple weed); test: Greenhouse postemergence herbicidal effect on MATMT
Text: as §1, §2, §3

Zea mays (maize) = settings: for Herbicidal Effects (% visual injury) ZEAMX Obs: Ethephon 0 g/ha
Text: as §1, §4, §5, §3

[10] = test system: Triticum aestivum (spring wheat)
Text: as §1, §4, §5, §3

[11] = test system: Sorghum vulgare (grain sorghum); settings: for Herbicidal Effects (% visual injury) SORVU Obs: Ethephon 0 g/ha
Text: as §1, §4, §5, §3

[12] = test system: Hordeum vulgare (winter barley)
Text: as §1, §4, §5, §3

[13] = test system: Hordeum vulgare (spring barley)
Text: as §1, §4, §5, §3

[14] = test system: Triticum aestivum (winter wheat)
Text: as §1, §4, §5, §3

[15] = test system: Brassica napus (winter rape); test: Greenhouse postemergence herbicidal effect on BRSNW
Text: as §1, §2, §3

[16] = test system: Helianthus annuus (common sunflower); test: Greenhouse postemergence herbicidal effect on HELAN; settings: for Herbicidal Effects (% visual injury) HELAN Obs: Ethephon 0 g/ha
Text: as §1, §4, §5, §3

N#CCOC(=O)c1nc(-c2ccc3cc[nH]c3c2F)c(F)c(N)c1Cl [Compound A, cyanomethyl 4-amino-3-chloro-5-fluoro-6-(7-fluoro-1H-indol-6-yl)pyridine-2-carboxylate]
% visual injury Obs ([1]; herbicide 7.5 g ae/ha alone): 96%
% visual injury Obs ([1]; herbicide 10 g ae/ha alone): 98%
% visual injury Obs ([1]; herbicide 15 g ae/ha alone): 100%
Herbicidal Effects (% visual injury) AMARE Obs ([2]; Compound A 7.5 g/ha): 99%
Herbicidal Effects (% visual injury) AMARE Obs ([2]; Compound A 10 g/ha): 100%
% visual injury Obs ([2]; herbicide 7.5 g ae/ha alone): 80% and 88%
% visual injury Obs ([2]; herbicide 10 g ae/ha alone): 85% and 88%
Herbicidal Effects (% visual injury) ABUTH Obs ([3]; Compound A 7.5 g/ha): 73%
Herbicidal Effects (% visual injury) ABUTH Obs ([3]; Compound A 10 g/ha): 85%
% visual injury Obs ([3]; herbicide 7.5 g ae/ha alone): 40% and 68%
% visual injury Obs ([3]; herbicide 10 g ae/ha alone): 48% and 80%
% visual injury Obs ([4]; herbicide 7.5 g ae/ha alone): 10%
% visual injury Obs ([4]; herbicide 10 g ae/ha alone): 13%
% visual injury Obs ([4]; herbicide 15 g ae/ha alone): 10%
% visual injury Obs ([5]; herbicide 7.5 g ae/ha alone): 23%
% visual injury Obs ([5]; herbicide 10 g ae/ha alone): 35%
% visual injury Obs ([5]; herbicide 15 g ae/ha alone): 45%
Herbicidal Effects (% visual injury) SETFA Obs ([6]; Compound A 7.5 g/ha): 55%
Herbicidal Effects (% visual injury) SETFA Obs ([6]; Compound A 10 g/ha): 70%
% visual injury Obs ([6]; herbicide 7.5 g ae/ha alone): 78%
% visual injury Obs ([6]; herbicide 10 g ae/ha alone): 80%
Herbicidal Effects (% visual injury) DIGSA Obs ([7]; Compound A 7.5 g/ha): 10%
Herbicidal Effects (% visual injury) DIGSA Obs ([7]; Compound A 10 g/ha): 10%
Herbicidal Effects (% visual injury) CYPES Obs ([8]; Compound A 7.5 g/ha): 58%
Herbicidal Effects (% visual injury) CYPES Obs ([8]; Compound A 10 g/ha): 38%
% visual injury Obs ([9]; herbicide 7.5 g ae/ha alone): 20%
% visual injury Obs ([9]; herbicide 10 g ae/ha alone): 20%
% visual injury Obs ([9]; herbicide 15 g ae/ha alone): 63%
Herbicidal Effects (% visual injury) ZEAMX Obs (Zea mays (maize); Compound A 7.5 g/ha): 0%
Herbicidal Effects (% visual injury) ZEAMX Obs (Zea mays (maize); Compound A 10 g/ha): 5%
% visual injury Obs (Zea mays (maize); herbicide 7.5 g ae/ha alone): 0%
% visual injury Obs (Zea mays (maize); herbicide 10 g ae/ha alone): 0%
% visual injury Obs ([10]; herbicide 7.5 g ae/ha alone): 0% and 5%
% visual injury Obs ([10]; herbicide 10 g ae/ha alone): 0% and 3%
% visual injury Obs ([10]; herbicide 15 g ae/ha alone): 0%
Herbicidal Effects (% visual injury) SORVU Obs ([11]; Compound A 7.5 g/ha): 8%
Herbicidal Effects (% visual injury) SORVU Obs ([11]; Compound A 10 g/ha): 8%
% visual injury Obs ([11]; herbicide 7.5 g ae/ha alone): 0%
% visual injury Obs ([11]; herbicide 10 g ae/ha alone): 0%
% visual injury Obs ([12]; herbicide 7.5 g ae/ha alone): 0%
% visual injury Obs ([12]; herbicide 10 g ae/ha alone): 0%
% visual injury Obs ([12]; herbicide 15 g ae/ha alone): 0%
% visual injury Obs ([13]; herbicide 7.5 g ae/ha alone): 0%
% visual injury Obs ([13]; herbicide 10 g ae/ha alone): 0%
% visual injury Obs ([13]; herbicide 15 g ae/ha alone): 0%
% visual injury Obs ([14]; herbicide 7.5 g ae/ha alone): 0%
% visual injury Obs ([14]; herbicide 10 g ae/ha alone): 0%
% visual injury Obs ([14]; herbicide 15 g ae/ha alone): 0%
% visual injury Obs ([15]; herbicide 7.5 g ae/ha alone): 60%
% visual injury Obs ([15]; herbicide 10 g ae/ha alone): 65%
% visual injury Obs ([15]; herbicide 15 g ae/ha alone): 73%
Herbicidal Effects (% visual injury) HELAN Obs ([16]; Compound A 7.5 g/ha): 100%
Herbicidal Effects (% visual injury) HELAN Obs ([16]; Compound A 10 g/ha): 93%
% visual injury Obs ([16]; herbicide 7.5 g ae/ha alone): 83% and 90%
% visual injury Obs ([16]; herbicide 10 g ae/ha alone): 88% and 89%
